The test system of data set [1] is H929 myeloma cells with MDSC. The data set can be described thus: Myeloma cytotoxicity assay with added MDSC, live cell imaging. It counts as cell-based, human. Conditions: B7-H3 TriKE and NK cells, 48 hours live cell imaging. As for the experimental part:
FIGS. 10A-10D illustrate the effect B7-H3-TriKE on MDSC developed from CD33+ myeloid cells from healthy donors, when incubated with myeloma cells at 1:100 ratio. FIG. 10A is a graph showing MDSC (CD14+CD11b+) expression of B7-H3. FIG. 10B is a graph showing cell survival as measured by flow cytometry. FIG. 10C is a plot of live, CD14+ cells FIG. 10D is a graph illustrating H929 growth as measured over 48 hours by live cell imaging.
MDSC were developed from CD33+ myeloid cells from healthy donors using IL-6 and GM-CSF or by incubating them with myeloma cells at 1:100 ratio for seven days.

Data set [2] concerns DU145 prostate cancer cells. Briefly: NK cell CD107a / IFNγ flow cytometry against DU145. It counts as cell-based, human. The settings on record: normal donor and prostate cancer patient NK cells, vs controls. An excerpt:
(§1) FIG. 15A is a graph showing pooled analysis of proportion of NK cells from healthy donors or prostate cancer patients expressing CD107a+ (top) or IFNγ (bottom) against C4-2 targets (N=9 for healthy donors, N=3 for patients). FIG. 15B is a graph showing pooled analysis of proportion of NK cells from healthy donors or prostate cancer patients expressing CD107a+ (top) or IFNγ (bottom) against DU145 targets (N=9 for healthy donors, N=3 for patients). FIG. 15C is a graph showing pooled analysis of proportion of NK cells from healthy donors or prostate cancer patients expressing CD107a+ (top) or IFNγ (bottom) against LNCaP targets (N=9 for healthy donors, N=3 for patients). FIG. 15D is a graph showing pooled analysis of proportion of NK cells from healthy donors or prostate cancer patients expressing CD107a+ (top) or IFNγ (bottom) against PC3 targets (N=9 for healthy donors, N=3 for patients). * p<0.05, ** p<0.01, *** p<0.001, and **** p<0.0001.
(§2) ADCC was measured in a flow cytometry assay by evaluating degranulation via CD107a (lysosomal-associated membrane protein LAMP-1) and intracellular IFNγ production. Upon thawing, normal donor and patient-derived PBMCs or ascites cells were rested overnight (37° C., 5% CO2) in RPMI 1640 media supplemented with 10% fetal calf serum (RPMI-10). […] Samples were washed and evaluated in an LSRII flow cytometer (BD Biosciences, San Jose, CA, USA). […]
In general terms: In flow cytometry, cells or beads pass a laser one at a time.

Data set [3] concerns ovarian cancer cell lines. The data set can be described thus: NK cell activation against ovarian cancer lines vs K562 / Raji. It counts as cell-based. As for the experimental part: ADCC was measured in a flow cytometry assay by evaluating degranulation via CD107a (lysosomal-associated membrane protein LAMP-1) and intracellular IFNγ production. Upon thawing, normal donor and patient-derived PBMCs or ascites cells were rested overnight (37° C., 5% CO2) in RPMI 1640 media supplemented with 10% fetal calf serum (RPMI-10). The next morning, they were suspended with tumor-target cells or media after washing twice with RPMI-10. Cells were then incubated with TriKEs or controls for 10 min at 37° C. Fluorescein isothiocyate (FITC)-conjugated anti-human CD107a monoclonal antibody (BD Biosciences, San Jose, CA, USA) was then added. […] Samples were washed and evaluated in an LSRII flow cytometer (BD Biosciences, San Jose, CA, USA).
The ability of cam1615B7-H3 TriKE to mediate NK cell activity against ovarian cancer cells was evaluated. […] In order to determine if the individual components of the TriKE could induce NK cell activity on their own, the individual cam16 VHH, IL-15, or anti-B7-H3 scFv components were incubated with PBMCs and OVCAR8 cells and activity was determined. […] NK cell activity, from normal donor PBMCs and ascites from the peritoneal cavity of ovarian cancer patients at the time of surgery, was assessed against MA-148 cells, another high-grade serous ovarian adenocarcinoma cell line (FIGS. 29A-29B and 30G-30H). […]

Data set [4] has as its system LNCaP prostate cancer cells. Briefly: NK cell CD107a / IFNγ flow cytometry against LNCaP. It is filed as cell-based, human. Conditions: normal donor and prostate cancer patient NK cells, vs controls.
Text: as §1, §2

On to “B7-H3 TriKE: camelid nanobodies targeting CD16 and B7-H3 joined by IL-15 and two linkers; sequence table equates the name with cam1615B7-H3”, for which the “MDSC-enhanced myeloma cell growth” value in data set [1] was “overcome”.
Take “cam1615B7-H3: second-generation TriKE: humanized camelid anti-CD16 VHH, human wild-type IL-15, anti-B7-H3 mAb 376.96 scFv; SEQ ID NO:1”: in data set [2], the “NK cell IFNγ production against DU145” value is listed as “enhanced” and the “NK cell degranulation (CD107a) against DU145” value was “enhanced”. Moreover, in data set [3] (K562 in the absence of TriKE), the “IFNγ production against ovarian cancer vs K562 natural cytotoxicity signal” value is on record as “stronger IFNγ production”. For the same substance, the “fold NK cell activation (PBMC+Tumor+TriKE divided by PBMC+TriKE alone)” value in data set [3] (all ovarian cancer cell lines vs Raji) is on record as “higher than activation by the B7-H3-negative Raji line”. Besides, in data set [4], the “NK cell IFNγ production against LNCaP” value was “enhanced” and the “NK cell degranulation (CD107a) against LNCaP” value was “enhanced”.
